The text below walks through data of patent US12059420B2 (BRISTOL-MYERS SQUIBB COMPANY, priority 2018, dated 2024).

The target of the assay is T1, human IDO1 (Homo sapiens, UniProt P14902).
T1 construct: expressed in transfected cells
The assay is described as follows: IDO inhibition assay in HEK293 cells stably expressing human IDO1 (kynurenine production, Ehrlich reagent, absorbance 490 nm). The class given is cell-based. Conditions: 20 hours incubation with compound, 500 nM reference standard = 100% inhibition, read-out: IDO1 HEK Human IC50. The method in brief: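 HEK293 clones stably expressing human IDO1 (10,000 cells/well, phenol red-free RPMI, 10% FBS) were treated with compound for 20 hours at 37° C. After 0.2% TCA and 30 min at 50° C., kynurenine was read with Ehrlich reagent at 490 nm. IC50 was normalised to DMSO (0%) and 500 nM reference standard (100%).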

T1 sequence (P14902 whole entry): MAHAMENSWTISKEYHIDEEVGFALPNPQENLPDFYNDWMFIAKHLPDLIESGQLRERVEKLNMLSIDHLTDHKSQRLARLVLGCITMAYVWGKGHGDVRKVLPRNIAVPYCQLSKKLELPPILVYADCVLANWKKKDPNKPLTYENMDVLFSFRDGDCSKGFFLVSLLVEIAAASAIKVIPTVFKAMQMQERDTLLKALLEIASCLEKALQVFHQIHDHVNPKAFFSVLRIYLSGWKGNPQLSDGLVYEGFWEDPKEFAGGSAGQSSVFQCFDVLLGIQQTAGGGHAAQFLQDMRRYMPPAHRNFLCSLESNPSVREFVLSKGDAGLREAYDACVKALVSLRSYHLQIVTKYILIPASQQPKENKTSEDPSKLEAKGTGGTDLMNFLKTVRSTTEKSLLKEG

As usually defined, the IC50 is the point on the concentration scale where inhibition reaches its midpoint. Regarding `CCCN(Cc1ccccc1)c1cc(NC(=O)Cc2c[nH]cn2)cc(-c2ccccc2-c2nn[nH]n2)n1` [Example 207, N-(2-(2-(2H-tetrazol-5-yl)phenyl)-6-(benzyl(propyl)amino)pyridin-4-yl)-2-(1H-imidazol-4-yl)acetamide], the IC50 was 3.43 µM.

Consider `CCCN(Cc1ccccc1)c1cc(NC(=O)Cc2cc(OC)cc(OC)c2)cc(-c2ccccc2-c2nn[nH]n2)n1` [Example 208, N-(2-(2-(2H-tetrazol-5-yl)phenyl)-6-(benzyl(propyl)amino)pyridin-4-yl)-2-(3,5-dimethoxyphenyl)acetamide], for which the IC50 amounted to 0.544 µM.

Turning to `CCCN(Cc1ccccc1)c1cc(NC(=O)Cc2cnccn2)cc(-c2ccccc2-c2nn[nH]n2)n1` [Example 210, N-(2-(2-(2H-tetrazol-5-yl)phenyl)-6-(benzyl(propyl)amino)pyridin-4-yl)-2-(pyrazin-2-yl)acetamide], the IC50 was determined as 1.71 µM. As to `CCCN(Cc1ccccc1)c1cc(NC(=O)Cc2csc(C)n2)cc(-c2ccccc2-c2nn[nH]n2)n1` [Example 211, N-(2-(2-(2H-tetrazol-5-yl)phenyl)-6-(benzyl(propyl)amino)pyridin-4-yl)-2-(2-methylthiazol-4-yl)acetamide], the IC50 is 0.906 µM.

For `CCCN(Cc1ccccc1)c1cc(NC(=O)C(F)c2ccccc2)cc(-c2ccccc2-c2nn[nH]n2)n1` (stereo not drawn) [Example 212, N-(2-(2-(2H-tetrazol-5-yl)phenyl)-6-(benzyl(propyl)amino)pyridin-4-yl)-2-fluoro-2-phenylacetamide], the IC50 was determined as 0.224 µM. On to `CCCN(Cc1ccccc1)c1cc(NC(=O)Cc2c(C)noc2C)cc(-c2ccccc2-c2nn[nH]n2)n1` [Example 213, N-(2-(2-(2H-tetrazol-5-yl)phenyl)-6-(benzyl(propyl)amino)pyridin-4-yl)-2-(3,5-dimethylisoxazol-4-yl)acetamide], for which the IC50 is 0.651 µM.

With `CCCN(Cc1ccccc1)c1cc(NC(=O)Cc2csc3ccccc23)cc(-c2ccccc2-c2nn[nH]n2)n1` [Example 216, N-(2-(2-(2H-tetrazol-5-yl)phenyl)-6-(benzyl(propyl)amino)pyridin-4-yl)-2-(benzo[b]thiophen-3-yl)acetamide], the IC50 turned out to be 0.0768 µM. For `CCCN(Cc1ccccc1)c1cc(NC(=O)Cc2cccc(Br)c2)cc(-c2ccccc2-c2nn[nH]n2)n1` [Example 217, N-(2-(2-(2H-tetrazol-5-yl)phenyl)-6-(benzyl(propyl)amino)pyridin-4-yl)-2-(3-bromophenyl)acetamide], the IC50 was 0.239 µM. As to `CCCN(Cc1ccccc1)c1cc(NC(=O)CC2CCCC2)cc(-c2ccccc2-c2nn[nH]n2)n1` [Example 218, N-(2-(2-(2H-tetrazol-5-yl)phenyl)-6-(benzyl(propyl)amino)pyridin-4-yl)-2-cyclopentylacetamide], the IC50 stood at 1.97 µM.

For `CCCN(Cc1ccccc1)c1cc(NC(=O)Cc2cccc(OC(F)(F)F)c2)cc(-c2ccccc2-c2nn[nH]n2)n1` [Example 219], the half-inhibitory concentration (IC50) came out at 0.0598 µM. In the case of `CCCN(Cc1ccccc1)c1cc(NC(=O)Cc2ccc(C(C)C)cc2)cc(-c2ccccc2-c2nn[nH]n2)n1` [Example 220, N-(2-(2-(2H-tetrazol-5-yl)phenyl)-6-(benzyl(propyl)amino)pyridin-4-yl)-2-(4-isopropylphenyl)acetamide], the half-inhibitory concentration (IC50) was determined as 0.0526 µM. In the case of `CCCN(Cc1ccccc1)c1cc(NC(=O)Cc2cn(C)c3ccccc23)cc(-c2ccccc2-c2nn[nH]n2)n1` [Example 221, N-(2-(2-(2H-tetrazol-5-yl)phenyl)-6-(benzyl(propyl)amino)pyridin-4-yl)-2-(1-methyl-1H-indol-3-yl)acetamide], the IC50 is 0.249 µM. Regarding `CCCN(Cc1ccccc1)c1cc(NC(=O)Cn2ccnc2)cc(-c2ccccc2-c2nn[nH]n2)n1` [Example 222, N-(2-(2-(2H-tetrazol-5-yl)phenyl)-6-(benzyl(propyl)amino)pyridin-4-yl)-2-(1H-imidazol-1-yl)acetamide], the IC50 was determined as 3.43 µM. Regarding `CCCN(Cc1ccccc1)c1cc(NC(=O)C2(c3ccccc3)CC2)cc(-c2ccccc2-c2nn[nH]n2)n1` [Example 223, N-(2-(2-(2H-tetrazol-5-yl)phenyl)-6-(benzyl(propyl)amino)pyridin-4-yl)-1-phenylcyclopropanecarboxamide], the IC50 is 0.965 µM. As to `CCCN(Cc1ccccc1)c1cc(NC(=O)C2(c3cccc(F)c3)CC2)cc(-c2ccccc2-c2nn[nH]n2)n1` [Example 224, N-(2-(2-(2H-tetrazol-5-yl)phenyl)-6-(benzyl(propyl)amino)pyridin-4-yl)-1-(3-fluorophenyl)cyclopropanecarboxamide], the IC50 was found to be 3 µM.

In the case of `CCCN(Cc1ccccc1)c1cc(NC(=O)Cc2ccccc2)cc(-c2ccccc2-c2nn[nH]n2)n1` [Example 225, N-(2-(2-(2H-tetrazol-5-yl)phenyl)-6-(benzyl(propyl)amino)pyridin-4-yl)-2-phenylacetamide], the IC50 stood at 0.364 µM. With `CCCN(Cc1ccccc1)c1cc(NC(=O)Cc2cccnc2)cc(-c2ccccc2-c2nn[nH]n2)n1` [Example 226, N-(2-(2-(2H-tetrazol-5-yl)phenyl)-6-(benzyl(propyl)amino)pyridin-4-yl)-2-(pyridin-3-yl)acetamide], the IC50 came out at 3.36 µM. For `CCCN(Cc1ccccc1)c1cc(NC(=O)Cc2ccc(C#N)cc2)cc(-c2ccccc2-c2nn[nH]n2)n1` [Example 227, N-(2-(2-(2H-tetrazol-5-yl)phenyl)-6-(benzyl(propyl)amino)pyridin-4-yl)-2-(4-cyanophenyl)acetamide], the IC50 was found to be 3.35 µM. Under `CC(C)CN(Cc1ccccc1)c1cc(NC(=O)Cc2ccc(F)c(F)c2)cc(-c2ccccc2-c2nnn[nH]2)n1` [Example 228, N-(2-(2-(1H-tetrazol-5-yl)phenyl)-6-(benzyl(isobutyl)amino)pyridin-4-yl)-2-(3,4-difluorophenyl)acetamide] stands 0.669 µM; under `CC(C)CN(Cc1ccccc1)c1cc(NC(=O)Cc2ccc(F)cc2F)cc(-c2ccccc2-c2nnn[nH]2)n1` [Example 229, N-(2-(2-(1H-tetrazol-5-yl)phenyl)-6-(benzyl(isobutyl)amino)pyridin-4-yl)-2-(2,4-difluorophenyl)acetamide], 0.188 µM. As for `CC(C)CN(Cc1ccccc1)c1cc(NC(=O)Cc2ccc(C(C)C)cc2)cc(-c2ccccc2-c2nnn[nH]2)n1` [Example 230, N-(2-(2-(1H-tetrazol-5-yl)phenyl)-6-(benzyl(isobutyl)amino)pyridin-4-yl)-2-(4-isopropylphenyl)acetamide], the IC50 was 0.139 µM.

Take `Cc1cc(CC(=O)Nc2cc(-c3ccccc3-c3nnn[nH]3)nc(N(Cc3ccccc3)CC(C)C)c2)on1` [Example 231, N-(2-(2-(1H-tetrazol-5-yl)phenyl)-6-(benzyl(isobutyl)amino)pyridin-4-yl)-2-(3-methylisoxazol-5-yl)acetamide]: the concentration for half-maximal inhibition (IC50) turned out to be 0.675 µM.

On to `CC(C)CN(Cc1ccccc1)c1cc(NC(=O)Cc2ccc(F)c(Cl)c2)cc(-c2ccccc2-c2nnn[nH]2)n1` [Example 233, N-(2-(2-(1H-tetrazol-5-yl)phenyl)-6-(benzyl(isobutyl)amino)pyridin-4-yl)-2-(3-chloro-4-fluorophenyl)acetamide], for which the IC50 is 0.961 µM. In the case of `CC(C)CN(Cc1ccccc1)c1cc(NC(=O)Cc2ccc(OC(F)(F)F)cc2)cc(-c2ccccc2-c2nnn[nH]2)n1` [Example 235, N-(2-(2-(1H-tetrazol-5-yl)phenyl)-6-(benzyl(isobutyl)amino)pyridin-4-yl)-2-(4-(trifluoromethoxy)phenyl)acetamide] it was 0.4 µM.
